{"source": "paper PMC10366102", "about": "“Dose escalation and expansion cohorts in patients with advanced breast cancer in a Phase I study of the CDK7-inhibitor samuraciclib” (Nature Communications, 2023)", "key": {"[1]": {"tested_on": "HR+/HER2− advanced breast cancer patients post-CDK4/6 inhibitor", "settings": "female, human, in vivo", "description": "In each cohort the dose of fulvestrant was 500 mg every 28 ± 2 days, with an additional 500 mg dose given 14 ± 2 days after the first dose. Cohort 1 tested samuraciclib 240 mg OD continuous dosing. If the DLT stopping criteria were not met, Cohort 2 commenced enrollment at the Module 1A MTD. Patients underwent regular safety monitoring and 8-week scans reported using RECIST V1.1[32].\nAs Module 1A was a ‘first time in human’ safety study, initial efficacy was evaluated as a secondary endpoint using the DCR, defined as the percentage of patients with a complete response (CR), PR or stabilization of disease at first on treatment RECIST assessment. To allow for the evaluation of longer-term benefit, Module 1B-1 and Module 2A used the CBR as a secondary endpoint, defined as the percentage of patients with CR or PR or stabilization of disease for at least 24 weeks between enrollment and disease progression or death due to any cause. In addition, the ORR was assessed, defined as the percentage of patients who had at least 1 objective response (CR or PR) prior to any evidence of progression. […] Statistical analyses of PFS using the Kaplan-Meier method were performed on the ITT population - defined as all enrolled patients. AEs were summarized from the Safety Population - defined as all patients who received at least 1 dose of samuraciclib - using the MedDRA system organ class (SOC), preferred term (PT), and graded according to CTCAE V5.0 (Supplementary Information).\nDLTs recorded in the first cycle. Patients were considered evaluable if they completed the first cycle or\ndiscontinued therapy in the first cycle due to a DLT. Patients in a cohort were replaced if they could not\ncomplete the first cycle unless this was due to a DLT.\nPart A was planned to have two dose cohorts with up to 6 evaluable patients to be enrolled per\ncohort. In each cohort, the dose of fulvestrant was fixed at the standard dose of 500mg given at intervals\nof 28±2 days with an additional 500mg dose given 14±2 days after the first dose. Fulvestrant was\nadministered as two consecutive slow intramuscular (IM) injections (1-2 minutes) of 250mg in 5 mL,\none in each buttock (gluteal area). Pre-and peri-menopausal women also had to have commenced\ntreatment with a luteinizing hormone-releasing hormone (LHRH) agonist at least 4 weeks prior to first\ndose of study medication. Patients continued to receive treatment in 28-day cycles until they no longer\ngained clinical benefit or they discontinued treatment.\nCohort 1 tested samuraciclib at 240mg OD as monotherapy, which is approximately 33% lower than the\ncurrent maximum tolerated dose (MTD) of 360mg. If no DLT was recorded in Cycle 1 in the first 3\nevaluable patients, Cohort 2 commenced enrolment at 360mg of samuraciclib OD.\nDLT in Cohort 1, a further 3 evaluable patients were assessed.\nstarted enrolment. If ≥ 2/3 or ≥ 2/6 patients in Cohort 1 experienced a DLT, dose escalation was\nstopped. In Cohort 2, if 0/3 or 1/3 evaluable patients experienced a DLT, the cohort was expanded to 6\npatients. If ≥ 2/3 or ≥ 2/6 patients experienced a DLT, the Cohort 1 dosing regimen (samuraciclib at\n240mg and fulvestrant at 500mg) was determined as the preliminary Phase 2 dosing regimen. If < 2/6\nconsidered the recommended Phase 2 regimen.\nThe SRC was convened to decide whether and when to open the second samuraciclib dosing cohort and\nwhich dosing regimen to advance to randomized Phase 2 testing. If the SRC considered safety and/or\npatients who had at least one response of complete response (CR) or partial response (PR) prior to any\nevidence of progression. The percentage change in tumor size was derived at each tumor imaging\nassessment by the best percentage change from baseline in the sum of the diameters of target lesions. In\nModule 1A initial efficacy was evaluated using the disease control rate (DCR) defined as percentage of\nparticipants with a complete response (CR) or partial response (PR) or stabilization of disease at first on\ntreatment RECIST assessment."}, "[2]": {"design": "method as in ref IB", "settings": "ref IB, cited from earlier work"}, "clinical": {"assay": "clinical", "description": "PK samples were taken in Module 1A, Module 1 B-1 and Module 2A (see schedule of assessments in Supplementary Information for timing of PK samples). PK parameters were derived using standard non-compartmental methods.\nSamuraciclib pharmacokinetic (PK) analyses were performed using the PK Population (defined as all patients who received at least 1 dose of samuraciclib and who had at least 1 samuraciclib plasma concentration above the lower limit of quantification and no important AEs or protocol deviations or other event that could have impacted the PK analysis). PK parameters were derived using standard non-compartmental methods, with graphical presentations of PK data as appropriate. Samuraciclib plasma concentrations and derived PK parameters were summarized by dose level. Parameters following single and multiple dosing were summarized separately. Appropriate statistics were used to summarize plasma concentrations and PK parameters. […]"}}, "data": [{"compound": "CC(C)c1cnn2c(NCc3ccccc3)cc(NC[C@H]3CCNC[C@@H]3O)nc12", "note": "[samuraciclib, Samuraciclib]", "values": [{"measurement": "Discontinued due to related gastrointestinal AEs", "setting": "[1]", "result": 23, "unit": "%"}, {"measurement": "Discontinued due to unrelated AEs", "setting": "[1]", "result": 5, "unit": "patients"}, {"measurement": "Drug-related: ALT increased", "setting": "[1]", "result": "3 (9.7) patients (%)"}, {"measurement": "Drug-related: AST increased", "setting": "[1]", "result": "4 (12.9) patients (%)"}, {"measurement": "Drug-related: Abdominal pain", "setting": "[1]", "result": "7 (22.6) patients (%)"}, {"measurement": "Drug-related: Abdominal pain (second line so named)", "setting": "[1]", "result": "4 (12.9) patients (%)"}, {"measurement": "Drug-related: Anaemia", "setting": "[1]", "result": "2 (6.5) patients (%)"}, {"measurement": "Drug-related: Constipation", "setting": "[1]", "result": "2 (6.5) patients (%)"}, {"measurement": "Drug-related: Decreased appetite", "setting": "[1]", "result": "9 (29.0) patients (%)"}, {"measurement": "Drug-related: Dehydration", "setting": "[1]", "result": "2 (6.5) patients (%)"}, {"measurement": "Drug-related: Diarrhoea", "setting": "[1]", "result": "28 (90.3) patients (%)"}, {"measurement": "Drug-related: Dry mouth", "setting": "[1]", "result": "2 (6.5) patients (%)"}, {"measurement": "Drug-related: Dry skin", "setting": "[1]", "result": "2 (6.5) patients (%)"}, {"measurement": "Drug-related: Dysgeusia", "setting": "[1]", "result": "4 (12.9) patients (%)"}, {"measurement": "Drug-related: Dysphagia", "setting": "[1]", "result": "3 (9.7) patients (%)"}, {"measurement": "Drug-related: Fatigue", "setting": "[1]", "result": "11 (35.5) patients (%)"}, {"measurement": "Drug-related: Flatulence", "setting": "[1]", "result": "2 (6.5) patients (%)"}, {"measurement": "Drug-related: Headache", "setting": "[1]", "result": "4 (12.9) patients (%)"}, {"measurement": "Drug-related: Mouth ulceration", "setting": "[1]", "result": "2 (6.5) patients (%)"}, {"measurement": "Drug-related: Mucosal inflammation", "setting": "[1]", "result": "2 (6.5) patients (%)"}, {"measurement": "Drug-related: Muscular weakness", "setting": "[1]", "result": "2 (6.5) patients (%)"}, {"measurement": "Drug-related: Nausea", "setting": "[1]", "result": "25 (80.6) patients (%)"}, {"measurement": "Drug-related: Rash", "setting": "[1]", "result": "3 (9.7) patients (%)"}, {"measurement": "Drug-related: Stomatitis", "setting": "[1]", "result": "2 (6.5) patients (%)"}, {"measurement": "Drug-related: Taste disorder", "setting": "[1]", "result": "2 (6.5) patients (%)"}, {"measurement": "Drug-related: Thrombocytopenia", "setting": "[1]", "result": "3 (9.7) patients (%)"}, {"measurement": "Drug-related: Vomiting", "setting": "[1]", "result": "23 (74.2) patients (%)"}, {"measurement": "Drug-related: Weight decreased", "setting": "[1]", "result": "2 (6.5) patients (%)"}, {"measurement": "Participants with any drug-related TEAE", "setting": "[1]", "result": "30 (96.8) patients (%)"}, {"measurement": "Oral bioavailability", "setting": "[2]; dog", "result": "good oral bioavailability"}, {"measurement": "Apparent elimination half-life (T½)", "setting": "[2]; dogs", "result": 9.5, "unit": "h"}, {"measurement": "Plasma clearance", "setting": "[2]; dogs", "result": "high"}, {"measurement": "Volume of distribution", "setting": "[2]; dogs", "result": "high volume of distribution"}, {"measurement": "Apparent clearance", "setting": "clinical; Module 1A", "result": "moderate to high"}, {"measurement": "Geometric mean accumulation ratio at steady-state", "setting": "clinical; both, human, in vivo", "result": "2.1-3.8"}, {"measurement": "Time to steady state", "setting": "clinical; both, human, in vivo", "result": "8 to 15", "unit": "days"}, {"measurement": "Tmax", "setting": "clinical; both, human, in vivo", "result": "1.5 to 4", "unit": "h"}, {"measurement": "half-life", "setting": "clinical; both, human, in vivo", "result": "~75", "unit": "h"}, {"measurement": "half-life", "setting": "clinical; both, human, in vivo, 180 mg", "result": "54.8 to 82.3", "unit": "h"}, {"measurement": "half-life", "setting": "clinical; both, human, in vivo, 480 mg", "result": "30 to 38", "unit": "h"}, {"measurement": "Distribution", "setting": "clinical; in vivo", "result": "extensively distributed"}, {"measurement": "Time dependence of PK", "setting": "clinical; in vivo", "result": "time independent"}]}]}
